Test results published in patent publication US20040067998A1, “Antifungal and/or antiparasitic pharmaceutical composition and novel indole derivatives as active principle of such a composition” (priority 2003, published 2004).
In brackets after ≈: the same amount, converted by molar mass. Several values for one entry are separate records, joined by “and”; a condition that tells them apart may be missing. Identical values can stand only once. Like-named read-outs stand apart in the source and are kept apart here.

What was measured:
Type in all cases: cell-based
[1] = tested on: promastigote stage of Leishmania mexicana; assay: Antiparasitic activity on the promastigote form of Leishmania (MTT); conditions: for IC50: read-out: CI50 Leishmania mexicana Promastigotes
[2] = tested on: Candida albicans (strain n° CA980001); assay: Antifungal activity on a clinical strain of Candida albicans (MTT colorimetric microplate test); conditions: for CMI or CI80 Candida albicans (CA980001) / MIC: strain CA980001; for MIC: read-out: CMI or CI80 Candida albicans (CA980001); for activity of inhibition of Candida albicans (in words): summary of Tables 27 to 40
[3] = tested on: Aspergillus fumigatus (strain n°AF 980003); assay: Antifungal activity on a clinical strain of Aspergillus fumigatus (Alamar Blue microplate test); conditions: for CMI or CI80 Aspergillus fumigatus (AF980003) / MIC: strain AF980003; for activity against Aspergillus fumigatus (in words): summary of Tables 27 to 40; for MIC: read-out: CMI or CI80 Aspergillus fumigatus (AF980003)
[4] = promastigotes, 36 h at 26° C., MTT
[5] = Leishmania mexicana, promastigotes, 36 h at 26° C., MTT
[6] = Candida albicans, 24 h at 37° C., MTT
[7] = Aspergillus fumigatus, Alamar Blue

## Fc1cccc(Cn2cc(Cn3ccnc3)c3ccccc32)c1 [compound 5]
[1]; [4]
  CI50 Leishmania mexicana Promastigotes: 9.2 ± 0.7 µg/mL (≈ 30.1 µM)
  IC50: 30.4 ± 2.5 µM
[2]; 24 h at 37° C., MTT
  CMI or CI80 Candida albicans (CA980001): 68 ± 1 μM and 20.76 ± 1 μg/ml
[3]; Alamar Blue
  CMI or CI80 Aspergillus fumigatus (AF980003): 46 ± 5 μM and 14 ± 1.5 μg/ml
[3]
  activity against Aspergillus fumigatus (in words): strong activity

## CC(c1cn(Cc2ccc(F)cc2)c2ccccc12)n1ccnc1.O=C(O)/C=C/C(=O)O (stereo not drawn) [67f]
[1]; promastigotes
  CI50 Leishmania mexicana Promastigotes: 1.57 ± 1.2 µg/mL
  IC50: 3.6 ± 1.2 µM
[2]
  CMI or CI80 Candida albicans (CA980001): 57 ± 2 μM and 25 ± 1 μg/mL
[3]
  CMI or CI80 Aspergillus fumigatus (AF980003): 64 ± 2 μM and 28 ± 1 μg/mL
  activity against Aspergillus fumigatus (in words): strong activity

## Fc1ccc(Cn2c(Cn3ccnc3)cc3ccccc32)cc1 [Cpsé 3n, 1-(4-Fluorobenzyl)-2-(1H-imidazol-1-ylmethyl)-1H-indole]
[1]
  activity against Leishmania mexicana (in words): strong activity
[1]; [5]
  IC50: 3.4 µg/mL and 8.5 µM
[2]; [6]
  MIC: 81 ± 14 µM (≈ 24.7 µg/mL)
[2]; 24 h at 37° C., MTT, listed as 9
  CMI or CI80 Candida albicans (CA980001): 32.46 ± 14 µg/mL
[3]; [7]
  MIC: 21 ± 0.3 µM (≈ 6.41 µg/mL)
[3]; Alamar Blue
  CMI or CI80 Aspergillus fumigatus (AF980003): 8 ± 1.2 µg/mL
[3]
  activity against Aspergillus fumigatus (in words): most active

## OC(Cn1ccnc1)(Cn1ccc2ccccc21)c1ccc(F)cc1F (stereo not drawn) [compound 77]
[1]; promastigotes
  CI50 Leishmania mexicana Promastigotes: 1.59 µg/mL (≈ 4.5 µM)
  IC50: 4.5 µM
[2]
  CMI or CI80 Candida albicans (CA980001): 0.00035 µg/mL
  MIC: 0.0011 µM (≈ 0.000389 µg/mL)
  activity of inhibition of Candida albicans (in words): most active
[3]
  CMI or CI80 Aspergillus fumigatus (AF980003): 11 ± 7 μM and 4 ± 2 μg/mL

## CCn1cc(C(c2ccc(F)cc2)n2ccnc2)c2cc(Br)ccc21 (stereo not drawn) [Cpsé 46, 5-Bromo-1-ethyl-3-[(4-fluorophenyl)(1H-imidazol-1yl)methyl]-1H-indole]
[1]; [5]
  IC50: 65 µM and 21 µg/mL
[2]; [6]
  MIC: > 100 µM
[3]; [7]
  MIC: > 100 µM

## CCn1c(C(c2ccc(Cl)cc2)n2ccnc2)c(C)c2cc(Br)ccc21 (stereo not drawn) [compound 33]
[1]
  activity against Leishmania mexicana (in words): strong activity
[1]; promastigotes
  CI50 Leishmania mexicana Promastigotes: 2.87 ± 2 µg/mL (≈ 6.69 µM)
  IC50: 6.7 ± 2.1 µM
[2]
  CMI or CI80 Candida albicans (CA980001): 59 ± 1 μM and 25 ± 0.5 μg/mL
[3]
  CMI or CI80 Aspergillus fumigatus (AF980003): 56 ± 3 μM and 24 ± 1 μg/mL
  activity against Aspergillus fumigatus (in words): strong activity

## CC(c1cn(Cc2ccc(Cl)cc2Cl)c2ccccc12)n1ccnc1.O=C(O)/C=C/C(=O)O (stereo not drawn) [68f]
[1]; promastigotes
  CI50 Leishmania mexicana Promastigotes: 2.7 ± 0.05 µg/mL
  IC50: 5.7 ± 0.13 µM
[2]
  CMI or CI80 Candida albicans (CA980001): 31 ± 7 μM and 15 ± 3 μg/mL
[3]
  CMI or CI80 Aspergillus fumigatus (AF980003): 65 ± 3 μM and 31 ± 1 μg/mL
  activity against Aspergillus fumigatus (in words): strong activity

## Fc1ccc(Cn2cc(Cn3cncn3)c3cc(Br)ccc32)cc1 [compound 25]
[1]
  CI50 Leishmania mexicana Promastigotes: 19.38 µg/mL (≈ 50.3 µM)
  IC50: 50.3 µM
[2]; 24 h at 37° C., MTT
  MIC: >100 µM
[3]; Alamar Blue
  MIC: >100 µM

## Fc1ccc(Cn2cc(Cn3ccnc3)c3cccnc32)cc1 [Cpsé 88, 1-(4-Fluorobenzyl)-3-(1H-Imidazol-1ylmethyl)-1H-7-azaindole]
[1]; [5]
  IC50: 16.6 µM and 6.64 µg/mL
[2]; [6]
  MIC: 0.7 ± 0.01 µM (≈ 0.214 µg/mL)
[2]; 24 h at 37° C., MTT, listed as 51
  CMI or CI80 Candida albicans (CA980001): 0.28 ± 0.01 µg/mL
[2]
  activity of inhibition of Candida albicans (in words): most active
[3]; [7]
  MIC: > 100 µM

## CCn1ccc2cc(C(c3ccc(Cl)cc3)n3ccnc3)ccc21 (stereo not drawn) [Cpsé 53, 5-[(4-Chlorophenyl)(1H-imidazol-1-yl)methyl]-1-ethyl-1H-indole]
[1]; [5]
  IC50: > 100 µM
[2]; [6]
  MIC: > 100 µM
[3]; [7]
  MIC: > 100 µM

## Fc1ccccc1Cn1cc(Cn2ccnc2)c2cc(Br)ccc21 [compound 11]
[1]
  CI50 Leishmania mexicana Promastigotes: 18.3 ± 0.6 µg/mL (≈ 47.6 µM)
  IC50: 47.7 ± 1.6 µM
[2]; 24 h at 37° C., MTT
  MIC: >100 µM
[3]; Alamar Blue
  MIC: >100 µM

## Fc1ccc(C(C(n2ccc3ccccc32)n2nnc3ccccc32)n2ccnc2)cc1 (mixture of isomers) [compound 83]
[1]
  CI50 Leishmania mexicana Promastigotes: 1.85 ± 0.03 µg/mL
  IC50: 4.4 ± 0.07 µM
[2]
  CMI or CI80 Candida albicans (CA980001): 55 ± 5 μM and 23 ± 2 μg/mL
[3]
  MIC: >100 µM

## Fc1ccc2c(c1)c(Cn1ccnc1)cn2Cc1ccc(Cl)cc1 [compound 15]
[1]; [4]
  CI50 Leishmania mexicana Promastigotes: 5.4 ± 1.6 µg/mL (≈ 15.9 µM)
  IC50: 15.9 ± 5 µM
[2]; 24 h at 37° C., MTT
  CMI or CI80 Candida albicans (CA980001): 21 ± 1 μM and 7 ± 1 μg/ml
[3]; Alamar Blue
  CMI or CI80 Aspergillus fumigatus (AF980003): 61 ± 3 μM and 20.73 ± 3 μg/ml
[3]
  activity against Aspergillus fumigatus (in words): strong activity

## CCN1CCc2cccc(C(c3ccc(F)cc3)n3ccnc3)c21 (stereo not drawn) [compound 50]
[1]
  activity against Leishmania mexicana (in words): most active
[1]; [4]
  CI50 Leishmania mexicana Promastigotes: 0.24 ± 0.017 µg/mL (≈ 0.747 µM)
  IC50: 0.74 ± 0.017 µM
[2]; 24 h at 37° C., MTT
  CMI or CI80 Candida albicans (CA980001): 0.67 ± 0.01 μM and 0.22 ± 0.01 μg/ml
[2]
  activity of inhibition of Candida albicans (in words): most active
[3]; Alamar Blue
  CMI or CI80 Aspergillus fumigatus (AF980003): 5.4 ± 0.2 μM and 1.7 ± 0.1 μg/ml
[3]
  activity against Aspergillus fumigatus (in words): most active
